Source: article PMC4642536, “Structural analysis of fungus-derived FAD glucose dehydrogenase” (Scientific Reports, 2015)

Columns and labels:
[1] = target: T1, AfGDH (Aspergillus flavus FAD-dependent glucose dehydrogenase, FADGDH) (Aspergillus flavus, UniProt B8MX95); test: PMS/DCIP reduction, absorbance at […] nm; FAD reduction spectrum; type: biochemical; conditions: 200 mM D-glucose, 0.6 mM PMS, 0.06 mM DCIP, 10 mM potassium phosphate pH 6.5, 25 °C
T1 construct: gene F9C07_464; residues 24-593, secretion signal peptide (1-22) removed; codon-optimised synthetic gene in pET30C, E. coli Origami2 (DE3); nonglycosylated; monomer
T1 sequence (B8MX95 24-593): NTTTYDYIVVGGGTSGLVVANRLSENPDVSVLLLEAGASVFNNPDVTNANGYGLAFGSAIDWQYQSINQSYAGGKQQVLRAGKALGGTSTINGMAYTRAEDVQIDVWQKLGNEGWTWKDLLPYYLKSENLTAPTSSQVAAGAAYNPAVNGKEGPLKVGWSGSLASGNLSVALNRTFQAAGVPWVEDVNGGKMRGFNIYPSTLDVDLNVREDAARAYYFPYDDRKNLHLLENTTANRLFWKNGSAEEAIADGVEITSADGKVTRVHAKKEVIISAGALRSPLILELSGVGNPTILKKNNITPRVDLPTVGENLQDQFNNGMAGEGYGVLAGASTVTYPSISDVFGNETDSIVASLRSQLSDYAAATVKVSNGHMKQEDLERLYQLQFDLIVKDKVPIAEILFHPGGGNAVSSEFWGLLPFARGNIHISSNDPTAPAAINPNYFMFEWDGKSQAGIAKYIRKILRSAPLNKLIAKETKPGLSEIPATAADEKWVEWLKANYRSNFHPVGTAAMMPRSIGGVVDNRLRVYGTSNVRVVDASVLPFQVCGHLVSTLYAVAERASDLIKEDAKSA

[2] = target: T1, AfGDH (Aspergillus flavus FAD-dependent glucose dehydrogenase, FADGDH); test: X-ray crystal structure, […] Å; type: binding; conditions: co-purified cofactor, refined as reduced form; pH 6.5; also in 4YNU

Structure (SMILES)	specific activity [1]	X-ray crystal structure, 1.78 Å [2]
OC[C@H]1OC(O)[C@H](O)[C@@H](O)[C@@H]1O (stereo partly drawn) [D-glucose]	The addition of glucose to the wild type enzyme resulted in the disappearance of the peaks	
Cc1cc2c(cc1C)N(C[C@H](O)[C@H](O)[C@H](O)COP(=O)(O)OP(=O)(O)OC[C@H]1O[C@@H](n3cnc4c(N)ncnc43)[C@H](O)[C@@H]1O)c1[nH]c(=O)[nH]c(=O)c1N2 [reduced FAD]		The bound FAD molecule was refined as a reduced FAD cofactor (FADH2)
